Reference: patent US20240336594A1, “SIX-MEMBERED ARYL OR HETEROARYL AMIDES, AND COMPOSITION AND USE THEREOF” (BETTA PHARMACEUTICALS CO., LTD, priority 2021, published 2024)
pIC50: −log10 of the molar value.

Legend:
[1] = tested on: IL-2 secretion of Jurkat cells (PMA/Ionomycin inducing); experiment: ELISA method to detect IL-2 secretion induced by PMA/Ionomycin; format: cell-based; conditions: Homo sapiens, 20 h
Procedure: 12.5*10^3 Jurkat cells were seeded on a 96-well plate and incubated with various concentrations of compound solution for 30 min. Then, 500×PMA/Ionomycin stimulating factor was diluted with culture medium and added to the cell plate. […] The final concentrations of the compounds were 10000, 3333.3, 1111.1, 370.4, 123.5, 41.2, 13.7, 4.6, 1.5, 0 nM (The final concentration of DMSO is 0.5%). After incubation for 20 h, the supernatant was collected via centrifugation. The final IL-2 concentration was detected by ELISA method (IL-2 Duoset, R&D Systems, DY202). The signal value of each sample at a wavelength of 450 nm was collected by EnVision multifunctional microplate reader and converted to the IL-2 concentration via the ELISACalc.exe software. The IL-2 secretion inhibitory activity IC50 was fitted by GraphPad Prism software. The cell viability was tested simultaneously using the Cell-Titer Glo kit.
The compounds of the present invention show strong inhibitory effect on IL-2 secretion of Jurkat cells (PMA/Ionomycin inducing).

MALT1 = molecular target: T1, MALT1 (Homo sapiens, UniProt Q9UDY8); experiment: MALT1 protease inhibition assay (AMC-labeled peptide, fluorescence 360/460); format: biochemical; conditions: substrate Ac-LRSR-AMC, 15 min preincubation, 90 min at 25° C.
T1 sequence (Q9UDY8 1-824): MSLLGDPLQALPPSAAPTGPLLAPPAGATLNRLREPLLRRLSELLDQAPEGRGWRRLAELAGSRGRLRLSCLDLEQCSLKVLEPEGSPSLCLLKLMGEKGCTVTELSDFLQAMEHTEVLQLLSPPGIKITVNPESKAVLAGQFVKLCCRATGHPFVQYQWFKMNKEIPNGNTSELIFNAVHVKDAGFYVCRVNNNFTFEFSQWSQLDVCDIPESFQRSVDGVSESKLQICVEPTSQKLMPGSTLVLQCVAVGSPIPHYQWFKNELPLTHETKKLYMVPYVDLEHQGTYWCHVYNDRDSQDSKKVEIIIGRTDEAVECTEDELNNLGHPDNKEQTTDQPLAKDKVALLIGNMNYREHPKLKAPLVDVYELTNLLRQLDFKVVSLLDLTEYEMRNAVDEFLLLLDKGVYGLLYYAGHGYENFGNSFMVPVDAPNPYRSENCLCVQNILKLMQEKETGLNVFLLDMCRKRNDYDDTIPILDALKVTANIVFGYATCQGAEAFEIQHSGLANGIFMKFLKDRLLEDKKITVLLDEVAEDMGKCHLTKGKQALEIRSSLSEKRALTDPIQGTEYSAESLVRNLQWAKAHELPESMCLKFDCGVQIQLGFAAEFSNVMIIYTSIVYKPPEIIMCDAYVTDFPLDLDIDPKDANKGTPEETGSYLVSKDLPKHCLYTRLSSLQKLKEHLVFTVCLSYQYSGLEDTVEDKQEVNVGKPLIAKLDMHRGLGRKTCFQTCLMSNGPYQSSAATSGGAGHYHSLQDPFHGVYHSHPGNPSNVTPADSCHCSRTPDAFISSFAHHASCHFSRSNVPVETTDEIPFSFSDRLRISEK
Method in brief: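 Fluorogenic AMC-peptide cleavage read after 90 min at 25 °C, following a 15 min enzyme–compound preincubation at 25 °C in citrate protease buffer plus DTT. Compounds run as ten 3-fold dilutions in duplicate; percent inhibition relative to enzyme-only and enzyme-free controls, fitted to IC50.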

Compound	pIC50 [1]	pIC50 (MALT1)
O=C(Nc1cnc(-n2nccn2)c(Cl)c1)c1ccc(-c2ccccc2Cl)cc1Cl [Example A42]	6.33	–
COc1ccccc1-c1ccc(C(=O)Nc2cnc(-n3nccn3)c(C(F)(F)F)c2)c(C)c1 [Example A64]	6.33	–
COc1ccccc1-c1cc(Cl)c(C(=O)Nc2cnc(-n3nccn3)c(C(F)(F)F)c2)cc1F [Example A67]	6.49	–
Nc1ccccc1-c1cc(Cl)c(C(=O)Nc2cnc(-n3nccn3)c(C(F)(F)F)c2)cc1F [Example A69]	6.71	–
O=C(Nc1cnc(-n2nccn2)c(Cl)c1)c1ccc(-c2ccncc2Cl)cc1Cl [Example A100]	6.43	–
Nc1ccccc1-c1cc(Cl)c(C(=O)Nc2cnc(-n3nccn3)c(Cl)c2)cc1F [Example A109, 2′-amino-5-chloro-N-(5-chloro-6-(2H-1,2,3-triazol-2-yl)pyridin-3-yl)-2-fluoro-[1,1′-biphenyl]-4-carboxamide]	7.03	≥ 8.00
Nc1ccccc1-c1cc(F)c(C(=O)Nc2cnc(-n3nccn3)c(C(F)(F)F)c2)cc1Cl [Example A110]	6.73	≥ 8.00
COc1cc(F)ccc1-c1cc(Cl)c(C(=O)Nc2cnc(-n3nccn3)c(C(F)(F)F)c2)cc1F [Example A112, N-(6-(2H-1,2,3-triazol-2-yl)-5-(trifluoromethyl)pyridin-3-yl)-5-chloro-2,4′-difluoro-2′-methoxy-[1,1′-biphenyl]-4-carboxamide]	6.63	–
Cc1cc(-c2ccc(F)cc2N)c(F)cc1C(=O)Nc1cnc(-n2nccn2)c(Cl)c1 [Example A113]	7.46	≥ 8.00
Cc1cc(-c2ccc(F)cc2Br)c(F)cc1C(=O)Nc1cnc(-n2nccn2)c(Cl)c1 [Example A114]	7.47	≥ 8.00
Cc1cc(-c2ccc(F)cc2Cl)c(F)cc1C(=O)Nc1cnc(-n2nccn2)c(Cl)c1 [Example A115, 2′-chloro-N-(5-chloro-6-(2H-1,2,3-triazol-2-yl)pyridin-3-yl)-2,4′-difluoro-5-methyl-[1,1′-biphenyl]-4-carboxamide]	7.40	≥ 8.00
Cc1cc(-c2ccc(F)cc2F)c(F)cc1C(=O)Nc1cnc(-n2nccn2)c(Cl)c1 [Example A116, N-(5-chloro-6-(2H-1,2,3-triazol-2-yl)pyridin-3-yl)-2,2′,4′-trifluoro-5-methyl-[1,1′-biphenyl]-4-carboxamide]	7.27	≥ 8.00
COc1ccccc1-c1cc(C)c(C(=O)Nc2cnc(-n3nccn3)c(Cl)c2)cc1F [Example A117, N-(5-chloro-6-(2H-1,2,3-triazol-2-yl)pyridin-3-yl)-2-fluoro-2′-methoxy-5-methyl-[1,1′-biphenyl]-4-carboxamide]	6.74	–
COc1cc(F)ccc1-c1cc(C)c(C(=O)Nc2cnc(-n3nccn3)c(Cl)c2)cc1F [Example A118, N-(5-chloro-6-(2H-1,2,3-triazol-2-yl)pyridin-3-yl)-2,4′-difluoro-2′-methoxy-5-methyl-[1,1′-biphenyl]-4-carboxamide]	7.09	–
Nc1ccccc1-c1cc(F)c(C(=O)Nc2cnc(-n3nccn3)c(Cl)c2)cc1Cl [Example A119, 2′-amino-2-chloro-N-(5-chloro-6-(2H-1,2,3-triazol-2-yl)pyridin-3-yl)-5-fluoro-[1,1′-biphenyl]-4-carboxamide]	6.33	≥ 8.00
Nc1cc(F)ccc1-c1cc(F)c(C(=O)Nc2cnc(-n3nccn3)c(Cl)c2)cc1Cl [Example A120, 2′-amino-2-chloro-N-(5-chloro-6-(2H-1,2,3-triazol-2-yl)pyridin-3-yl)-4′,5-difluoro-[1,1′-biphenyl]-4-carboxamide]	7.24	≥ 8.00
C#Cc1cnccc1-c1cc(Cl)c(C(=O)Nc2cnc(C(=O)NCC(F)(F)F)c(Cl)c2)cc1F [Example A429, 3-chloro-5-(2-chloro-4-(3-ethynylpyridin-4-yl)-5-fluorobenzamido)-N-(2,2,2-trifluoroethyl)picolinamide]	6.59	–
CC(=O)c1cncc(N)c1-c1cc(Cl)c(C(=O)Nc2cnc(-n3nccn3)c(Cl)c2)cc1F [Example A529, 4-(3-acetyl-5-aminopyridin-4-yl)-2-chloro-N-(5-chloro-6-(2H-1,2,3-triazol-2-yl)pyridin-3-yl)-5-fluorobenzamide]	6.68	–
C#Cc1cnc(C#N)c(N)c1-c1cc(Cl)c(C(=O)Nc2cnc(-n3nccn3)c(C(F)(F)F)c2)cc1F [Example A554, N-(6-(2H-1,2,3-triazol-2-yl)-5-(trifluoromethyl)pyridin-3-yl)-4-(3-amino-2-cyano-5-ethynylpyridin-4-yl)-2-chloro-5-fluorobenzamide]	–	≥ 8.00
C#Cc1c(F)nc(C)c(N)c1-c1cc(Cl)c(C(=O)Nc2cnc(-n3nccn3)c(C(F)(F)F)c2)cc1F [Example A556, N-(6-(2H-1,2,3-triazol-2-yl)-5-(trifluoromethyl)pyridin-3-yl)-4-(3-amino-5-ethynyl-6-fluoro-2-methylpyridin-4-yl)-2-chloro-5-fluorobenzamide]	–	≥ 8.00
C#Cc1c(F)nc(F)c(N)c1-c1cc(Cl)c(C(=O)Nc2cnc(-n3nccn3)c(C(F)(F)F)c2)cc1F [Example A557, N-(6-(2H-1,2,3-triazol-2-yl)-5-(trifluoromethyl)pyridin-3-yl)-4-(3-amino-5-ethynyl-2,6-difluoropyridin-4-yl)-2-chloro-5-fluorobenzamide]	–	≥ 8.00
Nc1c(Cl)ncc(Br)c1-c1cc(Cl)c(C(=O)Nc2cnc(-n3nccn3)c(C(F)(F)F)c2)cc1F [Example A558]	–	≥ 8.00

Results, then the compound that gave them:

pIC50 [1]	pIC50 (MALT1)	Compound
6.55	–	Cc1nc(-c2ccc(F)cc2Cl)ncc1C(=O)Nc1cnc(-n2nccn2)c(C(F)(F)F)c1 [Example A12]
6.71	–	Cc1cc(-c2ccc(F)cc2Cl)ccc1C(=O)Nc1cnc(-n2nccn2)c(C(F)(F)F)c1 [Example A16, N-(6-(2H-1,2,3-triazol-2-yl)-5-(trifluoromethyl)pyridin-3-yl)-2′-chloro-4′-fluoro-3-methyl-[1,1′-biphenyl]-4-carboxamide]
6.72	–	O=C(Nc1cnc(-n2nccn2)c(C(F)(F)F)c1)c1ccc(-c2ccc(F)cc2Cl)cc1Cl [Example A17, N-(6-(2H-1,2,3-triazol-2-yl)-5-(trifluoromethyl)pyridin-3-yl)-2′,3-dichloro-4′-fluoro-[1,1′-biphenyl]-4-carboxamide]
6.22	–	O=C(Nc1cnc(-n2nccn2)c(C(F)(F)F)c1)c1cnc(-c2ccc(F)cc2Cl)cc1Cl [Example A18, N-(6-(2H-1,2,3-triazol-2-yl)-5-(trifluoromethyl)pyridin-3-yl)-4-chloro-6-(2-chloro-4-fluorophenyl)nicotinamide]
6.20	–	O=C(Nc1cnc(-n2nccn2)c(C(F)(F)F)c1)c1ccc(-c2ccc(F)cc2Cl)cc1C1CC1 [Example A19, N-(6-(2H-1,2,3-triazol-2-yl)-5-(trifluoromethyl)pyridin-3-yl)-2′-chloro-3-cyclopropyl-4′-fluoro-[1,1′-biphenyl]-4-carboxamide]
6.81	–	O=C(Nc1cnc(-n2nccn2)c(Cl)c1)c1ccc(-c2ccc(F)cc2Br)cc1Cl [Example A102]
6.53	–	COc1cc(F)ccc1-c1ccc(C(=O)Nc2cnc(-n3nccn3)c(Cl)c2)c(Cl)c1 [Example A104]
6.87	–	O=C(Nc1cnc(-n2nccn2)c(C(F)(F)F)c1)c1cc(F)c(-c2ccc(F)cc2Cl)cc1Cl [Example A105]
6.58	–	O=C(Nc1cnc(-n2nccn2)c(C(F)(F)F)c1)c1cc(F)c(-c2ccccc2Cl)cc1Cl [Example A106, N-(6-(2H-1,2,3-triazol-2-yl)-5-(trifluoromethyl)pyridin-3-yl)-2′,5-dichloro-2-fluoro-[1,1′-biphenyl]-4-carboxamide]
6.55	–	Nc1ccccc1-c1cc(Cl)c(C(=O)Nc2cnc(-n3nccn3)c(C(F)(F)F)c2)cc1Cl [Example A111, N-(6-(2H-1,2,3-triazol-2-yl)-5-(trifluoromethyl)pyridin-3-yl)-2′-amino-2,5-dichloro-[1,1′-biphenyl]-4-carboxamide]
